Measurements reported in paper PMC6437697 (Journal of Medicinal Chemistry, 2019).

What was measured:
Assay in all cases: KINOMEscan
Assay type in all cases: binding
Details in all cases: read-out: % control activity remaining
BRSK1 = biological target: T1, BRSK1 (Homo sapiens, UniProt Q8TDC3)
T1 construct: purchased Eurofins DiscoverX KINOMEscan
T1 sequence (Q8TDC3 1-778): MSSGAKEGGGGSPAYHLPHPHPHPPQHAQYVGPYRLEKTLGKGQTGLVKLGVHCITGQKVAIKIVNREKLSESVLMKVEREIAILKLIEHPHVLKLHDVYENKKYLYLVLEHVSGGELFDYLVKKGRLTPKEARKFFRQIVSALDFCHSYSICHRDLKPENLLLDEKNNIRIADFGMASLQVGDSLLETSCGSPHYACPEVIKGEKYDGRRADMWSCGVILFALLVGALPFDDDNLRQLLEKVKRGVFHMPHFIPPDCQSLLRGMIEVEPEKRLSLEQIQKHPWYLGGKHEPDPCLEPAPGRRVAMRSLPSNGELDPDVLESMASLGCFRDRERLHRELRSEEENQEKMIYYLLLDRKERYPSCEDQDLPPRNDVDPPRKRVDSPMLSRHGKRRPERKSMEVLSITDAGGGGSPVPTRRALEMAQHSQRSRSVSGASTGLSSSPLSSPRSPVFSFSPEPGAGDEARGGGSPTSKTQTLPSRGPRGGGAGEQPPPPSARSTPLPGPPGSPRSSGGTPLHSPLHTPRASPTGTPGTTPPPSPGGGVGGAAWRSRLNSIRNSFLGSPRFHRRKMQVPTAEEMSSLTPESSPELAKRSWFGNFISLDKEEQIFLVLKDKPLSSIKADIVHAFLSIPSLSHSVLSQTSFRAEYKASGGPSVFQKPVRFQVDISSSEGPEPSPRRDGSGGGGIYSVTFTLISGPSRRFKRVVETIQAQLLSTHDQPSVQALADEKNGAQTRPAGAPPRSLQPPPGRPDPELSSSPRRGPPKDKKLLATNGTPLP

CSNK1G1 = biological target: T2, CSNK1G1 (Homo sapiens, UniProt Q9HCP0)
T2 construct: purchased Eurofins DiscoverX KINOMEscan

EPHA1 = biological target: T3, EPHA1 (Homo sapiens, UniProt P21709)
T3 construct: purchased Eurofins DiscoverX KINOMEscan
T3 sequence (P21709 26-976): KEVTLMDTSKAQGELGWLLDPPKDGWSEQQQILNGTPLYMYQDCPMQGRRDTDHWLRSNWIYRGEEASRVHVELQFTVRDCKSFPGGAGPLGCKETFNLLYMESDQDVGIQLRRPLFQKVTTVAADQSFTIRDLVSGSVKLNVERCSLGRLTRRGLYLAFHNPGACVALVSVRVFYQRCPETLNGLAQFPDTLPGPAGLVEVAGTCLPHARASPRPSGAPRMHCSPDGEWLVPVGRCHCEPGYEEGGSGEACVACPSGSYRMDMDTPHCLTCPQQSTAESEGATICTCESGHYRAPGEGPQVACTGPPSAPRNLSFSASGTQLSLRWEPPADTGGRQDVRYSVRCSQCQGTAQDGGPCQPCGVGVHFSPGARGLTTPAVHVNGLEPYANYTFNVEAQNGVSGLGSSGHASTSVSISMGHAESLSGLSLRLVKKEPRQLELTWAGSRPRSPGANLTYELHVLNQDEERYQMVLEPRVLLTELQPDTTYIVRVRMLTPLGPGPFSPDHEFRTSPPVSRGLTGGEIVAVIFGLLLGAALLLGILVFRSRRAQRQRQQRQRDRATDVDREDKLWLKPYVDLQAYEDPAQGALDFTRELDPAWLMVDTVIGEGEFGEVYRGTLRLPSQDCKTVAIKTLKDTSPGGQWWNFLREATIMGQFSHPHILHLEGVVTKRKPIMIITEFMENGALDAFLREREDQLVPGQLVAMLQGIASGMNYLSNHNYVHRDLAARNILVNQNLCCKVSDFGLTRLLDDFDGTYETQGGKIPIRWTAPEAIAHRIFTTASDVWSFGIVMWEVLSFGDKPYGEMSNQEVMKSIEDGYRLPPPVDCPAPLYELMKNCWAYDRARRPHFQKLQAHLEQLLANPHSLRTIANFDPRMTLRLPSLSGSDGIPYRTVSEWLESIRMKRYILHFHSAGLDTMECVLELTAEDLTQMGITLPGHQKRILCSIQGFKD

EPHB1 = biological target: T4, EPHB1 (Homo sapiens, UniProt P54762)
T4 construct: purchased Eurofins DiscoverX KINOMEscan
T4 sequence (P54762 18-984): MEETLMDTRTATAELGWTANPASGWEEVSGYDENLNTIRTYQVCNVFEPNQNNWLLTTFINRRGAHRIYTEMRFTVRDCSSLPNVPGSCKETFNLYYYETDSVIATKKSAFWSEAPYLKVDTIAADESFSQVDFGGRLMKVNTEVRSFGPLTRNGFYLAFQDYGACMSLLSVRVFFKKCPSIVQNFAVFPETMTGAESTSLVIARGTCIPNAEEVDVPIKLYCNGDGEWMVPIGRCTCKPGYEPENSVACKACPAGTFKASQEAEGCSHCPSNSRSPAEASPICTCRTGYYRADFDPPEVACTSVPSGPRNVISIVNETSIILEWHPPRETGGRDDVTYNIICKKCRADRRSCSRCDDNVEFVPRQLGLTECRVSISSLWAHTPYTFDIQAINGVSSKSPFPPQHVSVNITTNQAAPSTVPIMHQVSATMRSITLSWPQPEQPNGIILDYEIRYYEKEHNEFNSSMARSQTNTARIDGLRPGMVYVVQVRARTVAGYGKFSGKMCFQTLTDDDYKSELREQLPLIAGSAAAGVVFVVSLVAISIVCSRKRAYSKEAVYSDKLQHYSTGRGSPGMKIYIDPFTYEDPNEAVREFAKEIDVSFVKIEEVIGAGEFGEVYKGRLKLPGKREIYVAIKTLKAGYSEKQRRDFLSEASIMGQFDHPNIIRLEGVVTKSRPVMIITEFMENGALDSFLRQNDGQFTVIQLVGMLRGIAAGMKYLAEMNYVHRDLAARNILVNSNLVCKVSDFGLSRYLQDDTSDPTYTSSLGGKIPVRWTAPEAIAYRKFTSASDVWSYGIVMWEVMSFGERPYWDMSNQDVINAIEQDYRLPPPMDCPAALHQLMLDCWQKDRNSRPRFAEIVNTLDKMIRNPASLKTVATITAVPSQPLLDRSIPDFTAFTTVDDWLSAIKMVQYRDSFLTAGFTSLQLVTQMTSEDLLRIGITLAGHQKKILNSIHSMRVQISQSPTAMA

T2 sequence (Q9HCP0 whole entry): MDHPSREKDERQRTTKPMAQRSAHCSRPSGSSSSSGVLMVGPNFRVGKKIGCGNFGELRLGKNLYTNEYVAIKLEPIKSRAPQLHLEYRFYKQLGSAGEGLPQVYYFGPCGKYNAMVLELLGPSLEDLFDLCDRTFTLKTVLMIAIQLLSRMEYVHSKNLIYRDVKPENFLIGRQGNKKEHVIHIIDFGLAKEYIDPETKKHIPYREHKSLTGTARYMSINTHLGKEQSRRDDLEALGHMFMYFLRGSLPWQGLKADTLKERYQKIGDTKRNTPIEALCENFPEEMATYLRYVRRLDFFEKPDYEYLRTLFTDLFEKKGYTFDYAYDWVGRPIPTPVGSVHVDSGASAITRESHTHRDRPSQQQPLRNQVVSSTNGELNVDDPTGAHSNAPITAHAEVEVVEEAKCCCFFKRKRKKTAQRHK

CN1CCC(CNc2cc(Cl)nn3c(-c4cc5nc(Nc6ccccc6)[nH]c5cc4F)cnc23)CC1 [compound 31, 6-Chloro-3-(6-fluoro-2-(phenylamino)-1H-benzo[d]imidazol-5-yl)-N-((1-methylpiperidin-4-yl)methyl)imidazo[1,2-b]pyridazin-8-amine] was tested, and the remaining binding at 1 µM (BRSK1) was 100%, the remaining binding at 1 µM (CSNK1G1) was 100% and the remaining binding at 1 µM (EPHA1) was 99%. For the same molecule, the remaining binding at 1 µM (EPHB1) was 84%.

Work on O=C(CN1CCOCC1)N[C@H]1CC[C@H](Nc2cc(Cl)nn3c(-c4ccc5[nH]ncc5c4)cnc23)CC1 [compound 26] yielded a remaining binding at 1 µM (BRSK1) of 86%, a remaining binding at 1 µM (CSNK1G1) of 95% and a remaining binding at 1 µM (EPHA1) of 84%. For the same molecule, the remaining binding at 1 µM (EPHB1) was 89%.

In the case of Clc1cc(NCC2CC2)c2ncc(-c3ccc4[nH]ncc4c3)n2n1 [compound 2, 6-Chloro-N-(cyclopropylmethyl)-3-(1H-indazol-5-yl)imidazo[1,2-b]pyridazin-8-amine], the remaining binding at 1 µM (BRSK1) is reported as 96%, the remaining binding at 1 µM (CSNK1G1) is reported as 100% and the remaining binding at 1 µM (EPHA1) is reported as 80%. It also gave a remaining binding at 1 µM (EPHB1) of 100%.
